Reference: ChEMBL document CHEMBL5727720, “Bruton's tyrosine kinase inhibitors” (2020)

Each compound was assayed against Tyrosine-protein kinase BTK (Homo sapiens, UniProt Q06187) (assay: Kinase Assay: Measurements were performed in a reaction volume of 15 μL using 384-well assay plates. Kinase enzyme, inhibitor, ATP and 1 μM peptide substrate were incubated in a reaction buffer compose of Hepes 50 mM (pH7.0), NaN3 0.02%, BSA 0.01%, Orthocanadate 0.1 mM. After one hour, the kinase reaction was quenched by the addition of […] antibody and XL-665 in 1×Detection buffer containing 60 mM EDTA (Cisbio), and the mixture was allowed to incubate for one hour. The HTRF signal was measured on a multimode plate reader (EnVision® Multilabel Reader, Perkin Elmer) with an excitation wavelength (λEx) of 330 nm and detection wavelengths (λEm) of 615 and 665 nm. Activity was determined by the ratio of the fluorescence at 665 nm to that at 615 nm. For each compound, enzyme activity as measured at various concentrations of compound, Negative control reactions were performed in the absence of inhibitor in two replicates and eight no enzyme controls.).
Tyrosine-protein kinase BTK, sequence (Q06187 whole entry): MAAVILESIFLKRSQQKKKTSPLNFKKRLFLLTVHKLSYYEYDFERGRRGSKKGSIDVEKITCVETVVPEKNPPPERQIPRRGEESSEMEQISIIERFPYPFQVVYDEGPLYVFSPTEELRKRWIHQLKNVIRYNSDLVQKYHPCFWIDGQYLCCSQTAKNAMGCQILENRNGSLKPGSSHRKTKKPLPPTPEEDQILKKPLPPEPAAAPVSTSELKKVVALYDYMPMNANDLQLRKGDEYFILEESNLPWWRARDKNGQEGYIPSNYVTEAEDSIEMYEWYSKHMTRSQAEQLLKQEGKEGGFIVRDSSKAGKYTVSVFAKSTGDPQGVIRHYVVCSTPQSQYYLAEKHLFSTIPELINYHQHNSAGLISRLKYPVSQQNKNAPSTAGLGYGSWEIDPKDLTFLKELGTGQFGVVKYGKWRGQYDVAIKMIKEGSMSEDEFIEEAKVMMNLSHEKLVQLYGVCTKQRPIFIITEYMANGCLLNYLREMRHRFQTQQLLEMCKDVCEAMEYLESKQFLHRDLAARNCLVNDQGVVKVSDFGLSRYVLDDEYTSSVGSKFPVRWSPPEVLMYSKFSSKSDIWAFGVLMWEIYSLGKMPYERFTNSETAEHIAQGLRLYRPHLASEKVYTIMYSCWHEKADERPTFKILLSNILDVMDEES

IC50, < 10 nM:
C=CC(=O)N1CCC[C@@H](n2nc(-c3ccc(Oc4cccc(OC)c4Cl)cc3)c3cncc(OC4CCOC4)c32)C1 (some centres not stated), C=CC(=O)N1CC[C@@H](n2nc(-c3ccc(Oc4cccc(OC)c4Cl)cc3)c3cncc(OCC)c32)C1, C=CC(=O)N1CCC[C@@H](n2nc(-c3ccc(Oc4cccc(OC)c4Cl)cc3)c3cncc(OCCCC)c32)C1, C=CC(=O)N1CCC[C@@H](n2nc(-c3ccc(Oc4cccc(OC)c4Cl)cc3)c3cncc(OCCC)c32)C1, C=CC(=O)N1CCC[C@@H](n2nc(-c3ccc(Oc4cccc(OC)c4Cl)cc3)c3cncc(OC(C)C)c32)C1, C=CC(=O)N1CCC[C@@H](n2nc(-c3ccc(Oc4cccc(OC)c4Cl)cc3)c3cncc(OC)c32)C1, C=CC(=O)N1CCC[C@@H](n2nc(-c3ccc(Oc4cccc(OC)c4Cl)cc3)c3cncc(OCC)c32)C1
